Assay [1] relates to Poa annua. The assay can be described thus: Pre-emergence herbicidal activity against s-triazine-resistant Poa annua at 0.25 kg/ha after 14 days by pot test. The assay is classed as functional, organism-based.
Assay [2] concerns Poa annua. Put plainly: Herbicidal activity against hydroponic culture of s-triazine-resistant Poa annua at 10 ppm after 14 days. The assay is classed as functional, organism-based.
For assay [3], the system named is Poa annua. Put plainly: Pre-emergence herbicidal activity against s-triazine-susceptible Poa annua at 1 kg/ha after 14 days by pot test. The assay is classed as functional, organism-based.
The test system of assay [4] is Poa annua. The assay can be described thus: Pre-emergence herbicidal activity against s-triazine-susceptible Poa annua at 0.5 kg/ha after 14 days by pot test. It is filed as functional, organism-based.
For assay [5], the system named is Poa annua. The assay can be described thus: Herbicidal activity against hydroponic culture of s-triazine-resistant Poa annua at 1000 ppm after 14 days. It is filed as functional, organism-based.
Assay [6] deals with Poa annua. The assay can be described thus: Herbicidal activity against hydroponic culture of s-triazine-resistant Poa annua at 100 ppm after 14 days. It is filed as functional, organism-based.
Assay [7] concerns Poa annua. The assay can be described thus: Pre-emergence herbicidal activity against s-triazine-resistant Poa annua at 0.10 kg/ha after 14 days by pot test. It is filed as functional, organism-based.
For assay [8], the system named is Poa annua. Put plainly: Pre-emergence herbicidal activity against s-triazine-resistant Poa annua at 0.5 kg/ha after 14 days by pot test. The assay is classed as functional, organism-based.
For assay [9], the system named is Poa annua. The assay can be described thus: Pre-emergence herbicidal activity against s-triazine-resistant Poa annua at 0.05 kg/ha after 14 days by pot test. It is filed as functional, organism-based.
Assay [10] relates to Poa annua. The assay can be described thus: Pre-emergence herbicidal activity against s-triazine-resistant Poa annua at 1 kg/ha after 14 days by pot test. It is filed as functional, organism-based.
The subject of assay [11] is Poa annua. The assay can be described thus: Herbicidal activity against hydroponic culture of s-triazine-resistant Poa annua at 1 ppm after 14 days. It is filed as functional, organism-based.
The test system of assay [12] is Poa annua. The assay can be described thus: Herbicidal activity against hydroponic culture of s-triazine-resistant Poa annua at 0.1 ppm after 14 days. The assay is classed as functional, organism-based.
The subject of assay [13] is Poa annua. Put plainly: Herbicidal activity against hydroponic culture of s-triazine-susceptible Poa annua at 1000 ppm after 14 days. It is filed as functional, organism-based.
Assay [14] relates to Poa annua. Put plainly: Herbicidal activity against hydroponic culture of s-triazine-susceptible Poa annua at 100 ppm after 14 days. The assay is classed as functional, organism-based.
For assay [15], the target named is T1, Photosystem Q(B) protein (Poa annua, UniProt Q9XQA6). Put plainly: Inhibition ofphotosystem II in s-triazine-susceptible Poa annua leaf thylakoid membrane assessed as reduction of photosynthetic electron transport. Particulars: read-out: I50.
Assay [16] deals with Photosystem Q(B) protein (Poa annua) (UniProt Q9XQA6). The assay can be described thus: Resistant ratio, ratio of I50 for photosystem II in s-triazine-resistant Poa annua leaf thylakoid membrane to I50 for photosystem II in s-triazine-susceptible Poa annua leaf thylakoid membrane.
Assay [17] deals with T1, Photosystem Q(B) protein. Put plainly: Inhibition of photosystem II in s-triazine-resistant Poa annua leaf thylakoid membrane assessed as reduction of photosynthetic electron transport. The following applies: read-out: I50.
Assay [18] concerns Poa annua. Put plainly: Herbicidal activity against hydroponic culture of s-triazine-susceptible Poa annua at 0.1 ppm after 14 days. It is filed as functional, organism-based.
Assay [19] deals with Poa annua. The assay can be described thus: Herbicidal activity against hydroponic culture of s-triazine-susceptible Poa annua at 10 ppm after 14 days. The assay is classed as functional, organism-based.
Assay [20] has as its system Poa annua. Put plainly: Herbicidal activity against hydroponic culture of s-triazine-susceptible Poa annua at 1 ppm after 14 days. The assay is classed as functional, organism-based.
For assay [21], the system named is Poa annua. Put plainly: Pre-emergence herbicidal activity against s-triazine-susceptible Poa annua at 0.05 kg/ha after 14 days by pot test. The assay is classed as functional, organism-based.

Active and inactive are the calls of the source. The calls are words filed in the database; no cut-off is given here.

As to `CCNc1nc(Cl)nc(NCC)n1`, the result in assay [1], in assay [2], in assay [4], in assay [5], in assay [6] and in [7] was inactive. In addition, the result in assay [8], in assay [9], in assay [10], in assay [11] and in assay [12] was inactive. Moreover, the result in [3] and in assay [13] was Active.
Take `CN(C)C(=O)Nc1ccc(Cl)c(Cl)c1` [DCMU]: the result in assay [14], in [2], in [3], in [4], in assay [5] and in assay [6] was Active. In addition, the outcome in assay [10], in [19] and in assay [13] was Active. Also, the figures for the IC50 in assay [15] and in assay [17] were 0.13 µM and 0.4 µM, respectively. In addition, the Ratio in assay [16] is 3.1. Besides, the outcome in assay [18] and in assay [12] was inactive.
Regarding `CCNc1nc(Cl)nc(NC(C)C)n1` [ATRAZINE], the outcome in [14], in [3], in assay [4] and in [13] was Active. Also, the result in assay [1], in assay [2], in assay [6], in assay [7], in [8] and in assay [9] was inactive. The outcome in assay [10], in [11] and in assay [12] was inactive. Moreover, the IC50 in assay [15] is 0.16 µM; in assay [17], more than 100 µM. Moreover, the Ratio in assay [16] is more than 625.
As for `CCC(C)c1cc([N+](=O)[O-])cc([N+](=O)[O-])c1O` (centres undefined) [DINOSEB], the result in [14], in [2], in [5], in assay [6], in [10] and in assay [13] was Active. In addition, the IC50 in [15] turned out to be 4 µM; in assay [17], 0.4 µM. Further, the outcome in assay [20], in [18] and in assay [12] was inactive. Also, the Ratio in assay [16] stood at 0.1.
For the molecule `CSc1nc(NC(C)C)nc(NC(C)C)n1`, the result in assay [1], in [2], in [5], in assay [6], in [7] and in assay [8] was inactive. The outcome in assay [9], in assay [10], in assay [11] and in [12] was inactive. The result in [13] was Active.
In the case of `CCNc1nc(NCC)nc(SC)n1`, the outcome in assay [14] and in [13] was Active. For the same molecule, the result in assay [1], in assay [21], in assay [7], in assay [8], in [9] and in [10] was inactive. Further, the result in assay [11] and in assay [12] was inactive.
For `O=c1[nH]c2c(c(=O)n1C1CCCCC1)CCC2` [LENACIL], the result in assay [2], in [5], in assay [6], in [9], in assay [11] and in [12] was inactive. The result in assay [3], in assay [4] and in assay [13] was Active. Moreover, the IC50 was found to be 1 µM in assay [15] and 20 µM in [17]. In assay [16], the Ratio turned out to be 20.
With `CCNc1nc(Cl)nc(NC(C)(C)C#N)n1`, the result in assay [14], in assay [1], in assay [7], in assay [8], in [9] and in assay [10] was inactive. Besides, the result in [11], in [12] and in [13] was inactive. The outcome in assay [3] and in [4] was Active.

For the origin of these results see ChEMBL document CHEMBL3044784, “Molecular Basis of Resistance to s-Triazine Herbicides in Poa annua L. and Its Photosynthetic Properties under Different Light Conditions” (J Pestic Sci, 2001).
